Reference: patent publication EP2608671B1, “COMPOUNDS FOR TREATMENT OF CANCER” (Gtx, Inc., priority 2010, dated 2012)
Read-outs that look alike come from different tables or passages of the source.

Legend:
OVCAR-8 = assay: SRB growth inhibition, MDR model parent line; assay type: cell-based, human; details: Homo sapiens, OVCAR-8; Table 5A; read-out: IC50 (nM), OVCAR-8
NCI/ADR-RES = assay: SRB growth inhibition, P-gp over-expressing MDR line; assay type: cell-based, human
DU 145 = assay: cells; details: Homo sapiens
LNCaP = assay: cells; details: Homo sapiens
PC-3 = assay: cells
From the text: (§1) The only compounds which belong to the invention are the ones falling under the scope of formula (XI).
Cells were stained with SRB solution.
Cells. […] Cells between the third and fifth passages were used for experiments.
Cell growth inhibition studies. […] Cells were stained with sulphorhodamine B (SRB) solution.

[1] = test system: prostate cancer cell lines (LNCaP, DU 145, PC-3, PPC-1); assay: SRB cytotoxicity, prostate cancer cell panel (text summaries); assay type: cell-based; details: Homo sapiens; summary over LNCaP, PC-3, DU-145, PPC-1; read-out: IC50 against prostate cancer cells
From the text: as §1

PPC-1 [2] = assay: cells; details: Homo sapiens
B16-F1 = assay: SRB cell growth inhibition (cytotoxicity) assay; assay type: cell-based, mouse
From the text: as §1

[3] = test system: melanoma cell lines (A375, WM-164, B16-F1) and prostate cancer cell lines (LNCaP, DU 145, PC-3, PPC-1); assay: SRB cytotoxicity, melanoma and prostate cell panel (averages); assay type: cell-based
From the text: as §1

A375 = assay: SRB cell growth inhibition (cytotoxicity) assay; assay type: cell-based, human
WM-164 = assay: SRB cell growth inhibition (cytotoxicity) assay; assay type: cell-based, human
PPC-1 [4] = test system: PPC-1
[5] = DU-145, 96 h, read-out: IC50 ± SEM (nM), DU 145
[6] = 96 h, read-out: IC50 ± SEM (nM), LNCaP
[7] = Homo sapiens, PC-3, 96 h, read-out: IC50 ± SEM (nM), PC-3
[8] = PPC-1, 96 h, read-out: IC50 ± SEM (nM), PPC-1
[9] = DU-145, 96 h, read-out: IC50 ± SEM (nM) Du 145
[10] = Mus musculus, B16-F1 melanoma cells, 48 h, SRB, read-out: IC50 ± SEM (nM) B16-F1
[11] = Homo sapiens, A-375, A375 melanoma cells, 48 h, SRB, read-out: IC50 ± SEM (nM) A375
[12] = Homo sapiens, WM164 melanoma cells, 48 h, SRB, read-out: IC50 ± SEM (nM) WM164
[13] = ABI compounds, Tables 11-13, read-out: IC50 (average over cell lines)

Which results are given for `COc1cc(C(=O)c2csc(Nc3ccc(F)cc3)n2)cc(OC)c1OC` [5c, (2-(p-Fluorophenylamino)thiazol-4-yl)(3,4,5-trimethoxyphenyl)methanone]?
IC50 (OVCAR-8): 44 ± 3 nM; IC50 (NCI/ADR-RES; Homo sapiens, NCI/ADR-RES, P-gp over-expressed MDR cell line, Table 5A, read-out: IC50 (nM), NCI/ADR-RES): 25 ± 6 nM; Resistance factor (NCI/ADR-RES; NCI/ADR-RES vs OVCAR-8, 5760 min): 0.6; IC50 (DU 145; [5]): 63 ± 1 nM; IC50 (LNCaP; [6]): 41 ± 1 nM; IC50 (PC-3; [7]): 43 ± 1 nM

For `COc1cc(C(=O)c2c[nH]c(Nc3ccccc3)n2)cc(OC)c1OC` [5e, (2-(Phenylamino)-1H-imidazol-4-yl)(3,4,5-trimethoxyphenyl)methanone], which IC50 (DU 145; [5]) is on record?
Its IC50 is > 1000 nM.

What about the IC50 (LNCaP; [6]) of the same compound?
Its IC50 is > 1000 nM.

What about the IC50 (PC-3; [7]) of the same compound?
Its IC50 is > 1000 nM.

And the IC50 [1]?
Its IC50 is > 1000 nM.

And the IC50 (PPC-1 [2]; [8])?
Its IC50 is > 1000 nM.

What does the source list for `O=C(c1ccc(F)cc1)c1cn(S(=O)(=O)c2ccccc2)c(-c2ccc(OCc3ccccc3)cc2)n1` [11jb, (2-(4-(benzyloxy)phenyl)-1-(phenylsulfonyl)-1H-imidazol-4-yl)(4-fluorophenyl)methanone]?
IC50 (DU 145; [9]): 58 ± 1 nM; IC50 (LNCaP; [6]): 35 ± 1 nM; IC50 (PC-3; [7]): 75 ± 0.5 nM; IC50 (B16-F1; [10]): 110 ± 15 nM; IC50 ([3]; Prostate cell, ABI compounds, Tables 11-13, read-out: IC50 (average over cell lines)): 61 nM; IC50 (A375; [11]): 64 ± 7 nM; IC50 (WM-164; [12]): 48 ± 5 nM; IC50 (PPC-1 [2]; [8]): 38 ± 0.2 nM

How did the IC50 (DU 145; DU-145, 96 h, read-out: IC50 (nM), Du 145) turn out when `COc1cc(C(=O)c2c[nH]c(-c3ccccc3)n2)cc(OC)c1OC` [12aa, (2-phenyl-1H-imidazol-4-yl)(3,4,5-trimethoxyphenyl)methanone] was run?
Its IC50 is 196 nM.

And the IC50 (LNCaP; 96 h, read-out: IC50 (nM), LNCaP)?
The IC50 was 152 nM.

And the IC50 (PC-3; Homo sapiens, PC-3, 96 h, read-out: IC50 (nM), PC-3)?
The IC50 was 288 nM.

And the IC50 (B16-F1; Mus musculus, B16-F1, 48 h, read-out: IC50 (nM), B16-F1)?
Its IC50 is 120 nM.

And the IC50 [3, 13]?
The IC50 was 160 nM.

And the IC50 (A375; Homo sapiens, A-375, 48 h, read-out: IC50 (nM), A375)?
The IC50 was 160 nM.

What about the IC50 (WM-164; Homo sapiens, WM164, 48 h, read-out: IC50 (nM), WM164) of the same compound?
Its IC50 is 10 nM.

What about the IC50 (PPC-1 [2]; PPC-1, 96 h, read-out: IC50 (nM), PPC-1) of the same compound?
The IC50 was 133 nM.

With `COc1ccc(-c2nc(C(=O)c3cc(OC)c(OC)c(OC)c3)c[nH]2)cc1OC` [12ha, (2-(3,4-dimethoxyphenyl)-1H-imidazol-4-yl)(3,4,5-trimethoxyphenyl)methanone] as the compound, how does the IC50 (B16-F1; Mus musculus, B16-F1, 48 h, read-out: IC50 ± SEM (nM) B16-F1) read?
The IC50 was 1400 ± 200 nM.

And the IC50 [3, 13]?
Its IC50 is 330 nM.

What about the IC50 (WM-164; Homo sapiens, WM164, 48 h, read-out: IC50 ± SEM (nM) WM164) of the same compound?
Its IC50 is 191 ± 18 nM.

For `O=C(c1ccc(F)cc1)c1c[nH]c(-c2ccccc2C(F)(F)F)n1` [12ib, (4-fluorophenyl)(2-(2-(trifluoromethyl)phenyl)-1 H-imidazol-4-yl)methanone], which IC50 (DU 145; [9]) is on record?
Its IC50 is > 10000 nM.

What about the IC50 (LNCaP; [6]) of the same compound?
Its IC50 is > 10000 nM.

What about the IC50 (PC-3; [7]) of the same compound?
Its IC50 is > 10000 nM.

What about the IC50 (B16-F1; [10]) of the same compound?
Its IC50 is > 10000 nM.

What about the IC50 ([3]; Prostate cell, read-out: IC50 (average over cell lines)) of the same compound?
The IC50 was > 10000 nM.

What about the IC50 (A375; [11]) of the same compound?
The IC50 was > 10000 nM.

What about the IC50 (WM-164; [12]) of the same compound?
The IC50 was > 10000 nM.

And the IC50 (PPC-1 [2]; [8])?
The IC50 was > 10000 nM.

Which IC50 (B16-F1; SRB assay, Tables 1, 2, 3, 5B, 5C, read-out: IC50 ± SEM (nM), B16-F1) does the source give for `COc1cc(C(=O)[C@H]2COC(c3ccccc3)=N2)cc(OC)c1OC` [35a, (2R)-(2-Phenyl-4,5-dihydro-oxazol-4-yl)-(3,4,5-trimethoxy-phenyl)-methanone] here?
Its IC50 is 6500 ± 800 nM.

And the IC50 (A375; SRB assay, 96 h, Tables 1, 2, 3, 5B, 5C, read-out: IC50 ± SEM (nM), A375)?
Its IC50 is 500 ± 100 nM.

And the IC50 (PPC-1 [4]; read-out: IC50 ± SEM (nM), PPC-1, SRB assay, 96 h, Tables 1, 2, 3, 5B, 5C)?
The IC50 was 1100 ± 100 nM.

`O=C(c1ccc2[nH]ccc2c1)c1csc(-c2cc3ccccc3[nH]2)n1` [compound 21, (2-(1H-indol-2-yl)thiazol-4-yl)(1H-indol-5-yl)methanone] was tested. Which IC50 (DU 145; DU-145, read-out: IC50 (nM), DU 145) did it give?
The IC50 was 435 nM.

And the IC50 (LNCaP; read-out: IC50 (nM), LNCaP)?
The IC50 was 314 nM.

And the IC50 (PC-3; Homo sapiens, PC-3, read-out: IC50 (nM), PC-3)?
Its IC50 is 403 nM.

What about the IC50 (B16-F1; Mus musculus, B16-F1, Table 6A, read-out: IC50 (nM), B16-F1) of the same compound?
The IC50 was 924 nM.

And the IC50 ([3]; Prostate cell, summary of Tables 2, 3, 21, read-out: IC50 range over tested melanoma and prostate cell lines)?
Its IC50 is 76 to 116 nM.

What about the IC50 (A375; Homo sapiens, A-375, Table 6A, read-out: IC50 (nM), A375) of the same compound?
Its IC50 is 383 nM.

And the IC50 (WM-164; Homo sapiens, WM164, Table 6A, read-out: IC50 (nM), WM164)?
Its IC50 is 408 nM.

What about the IC50 (PPC-1 [2]; PPC-1, read-out: IC50 (nM), PPC-1) of the same compound?
The IC50 was 216 nM.

How did the IC50 (PC-3; read-out: IC50 (nM), PC-3, Table 6A) turn out when “(1-(phenylsulfonyl)-2-(1-(phenylsulfonyl)-1H-indol-3-yl)-1H-imidazol-4-yl)(3,4,5-trimethoxyphenyl)methanone [17yaa]” was run?
The IC50 was 148 nM.

What about the IC50 (B16-F1; Table 6A, read-out: IC50 (nM), B16-F1) of the same compound?
The IC50 was 539 nM.

What about the IC50 (A375; Table 6A, read-out: IC50 (nM), A375) of the same compound?
Its IC50 is 481 nM.

What about the IC50 (WM-164; Table 6A, read-out: IC50 (nM), WM164) of the same compound?
The IC50 was 468 nM.

What about the IC50 (PPC-1 [4]; read-out: IC50 (nM), PPC-1, Table 6A) of the same compound?
Its IC50 is 209 nM.
